# Assay results reported in patent US20240241137A1, “METHOD FOR SELECTING A DRUG CANDIDATE FOR TREATING OR PREVENTING OR DELAYING THE ONSET OR PROGRESSION OF AN AMYLOIDOGENIC DISEASE” (NATIONAL HEALTH RESEARCH INSTITUTES, priority 2022, published 2024).
# “Also recorded” adds a separate entry of the source. Counter-ions that a name gives are not always drawn.
# How the values were obtained:
# LPS-Aβ42 complex = LPS-Aβ42 complex (Homo sapiens, UniProt P05067); experiment: Real-time mass-sensitive measurement (QCM-D) of the non-equilibrium oscillation between LPS and Aβ42; assay type: binding; details: for time (apparent lifetime of the non-equilibrium interaction): mass dropping from 80% to 20%; for effect on the oscillatory event (lifetime) of the LPS-Aβ42 complex: bait in combination with LPS, Aβ42 100 μM, baits 20 μM
# From the text: The lifetime of each sample was indicated in colored lines.
# A real-time mass-sensitive measurement strategy involving quartz crystal microbalance with dissipation explorer (QCM-D) and single-channel module (Q-Sense, Biolin Scientific, Vastra Frölunda, Sweden) was used to evaluate the non-equilibrium interaction between Aβ42 and two baits (LPS and natural compounds). In addition, the steady-state circular dichroism and fluorescence spectra upon excitation of tryptophan at different temperatures were recorded to reveal the secondary structures of Aβ42 in the presence and absence of LPS. The fluorescent T jump system was utilized to confirm the adsorbing capability of LPS to Aβ42 by reading the corresponding protein dynamics. The detailed methods and materials are described as follows.
# Preparation of the first bait: A solution of 0.1 mM MCL-NHS and LPS at a ratio of 1:1 was mixed in DI water. The mixture was cooled at 25° C. overnight (please refer to linker modification in the following), which spontaneously allowed the conjugation of the amine group of LPS and NHS-activated carboxylic acid of MCL. Owing to the structural complexity, it was difficult to validate the amide bond formation between MCL-NHS and LPS via NMR identification (FIG. 1). Nevertheless, the supramolecular host-guest recognition between LPS and colistin (a cyclic peptide) was used to identify the existence of MCL-modified LPS (first bait). The details of the mass-sensitive measurement are described in the next section.
# Linker modification: The conjugation of the first bait (LPS) and linker (3-mercaptopanyl-n-hydroxysuccinimide ester) was mixed together for overnight reaction before anchoring on the gold sensor. The linker may be linked to one or two —NH2 groups in the core oligosaccharide part of LPS.
# Real-time mass-sensitive measurement: Quartz crystal microbalance with dissipation explorer (QCM-D) and single-channel module (Q-Sense™, BIOLIN SCIENTIFIC®, Vastra Fralunda, Sweden) was used to evaluate the non-equilibrium interaction between Aβ42 and two baits (LPS and natural compounds). Prior to use, the new and reused gold sensors (a circle shape with a diameter of 1.0 cm, Q-Sense Sensors™, BIOLIN SCIENTIFIC®) were precleaned using a UV/ozone cleaner and piranha solution, which was a mixture of 30% H2O2 and concentrated H2SO4 at 1:3 (v/v). This piranha solution reacts violently with organic materials and should be handled with great care and protection. After washing of the gold sensors with LPS-free DI water, the first bait was initially inputted in a flow model at a flow rate of 0.15 mL/min under 25° C., which could be immediately anchored on a clean gold sensor. We conducted all measurements by switching between the continuous flowing model (CFM) and flowing-to-soaking model (FSM) after washing; the CFM maintained the same flow rate (0.15 mL/min), and the FSM allowed the flow velocity to slow down or completely stop. A sampling interval of 0.3 s was used to collect each frequency readout at seven overtones […], while the quartz crystal resonator of the QCN-D system settled at a fundamental resonant frequency (5 MHz). The Q-Sense system was utilized in addition to the following Sauerbrey equation to obtain the third overtone (n=3) and calculate the mass change after measurement.
# where Δm is the change in the adsorbed mass of molecules; Δf is the time-responded frequency observed at the third overtone; and C is a constant that is equal to 17.7 ng/cm^2 at the resonance frequency of the quartz oscillator (5 MHz). The equation (Eq. S1) allows a direct quantitative study for mass comparison.
# Operation of a real-time sensing platform: To perform the measurements, the LPS-free DI water and other solvents were allowed to continuously flow for about 1 h at 25° C. or until the baseline of two parameters (frequency and dissipation of QCM-D) reached an equilibrium state before sample operation and data collection. […]
# SH—SY5Y neuronal cells = experiment: Cell viability (CCK8) of Aβ42-treated neuronal cells; details: for rescue effect of Aβ42-induced cell apoptosis: co-treatment with low dose (10 nM) LPS, bait 1, 10, 50, 100 μM, versus LPS alone; for rescue of Aβ42-induced cell death by small baits alone: without co-treatment with LPS
# Protocol: Cell viability: Neuronal cells were maintained in MEM (GIBCO® 51200-038) supplemented with 10% FBS, 1×MEM NEAA (GIBCO® 11140-050), 1×L-glutamine (GIBCO® 25030-081), and 1×sodium pyruvate (GIBCO® 1136-070). Neuronal SH—SY5Y cells were plated at a density of 8,000 cells per well in 96-well plates and allowed to attach overnight at 37° C. in 5% CO2 humidified air. Aβ42 (100 μM), LPS (10 nM), CS (100 μM), EG (100 PM), and morin (100 μM) were then added to each medium containing 2.5% dimethyl sulfoxide and sterilized using UV light. Thereafter, the solution containing Aβ42 and LPS was mixed with CS, EG, or morin at different concentrations ranging from 1 to 100 μM and added into the plate of the SH—SY5Y cells. The medium was then replaced, and the remaining mixture was incubated for 72 h at 37° C. in 5% CO2 humidified air. Cell viability was measured using the CCK8 (SIGMA-ALDRICH® 96992) assay according to the manufacturer's protocol. Before the Aβ42 treatment of Neuronal SH—SY5Y cells, a 30 k filter was used to remove unbound LPS from the LPS-insulted Aβ42 mixture.
# SH—SY5Y cells = experiment: Western blot of residual Aβ42 levels (clearance of Aβ42 by neuronal cells); assay type: cell-based; details: co-treatment with low-dose LPS, 72 h
# Protocol: The cell mixture samples were analyzed via 12% SDS-PAGE gel electrophoresis and transferred to a PVDF membrane. […] After hybridization with the primary antibody, the membrane was washed thrice with PBST before the addition of an HRP-conjugated secondary antibody against the primary antibody. The membrane was then washed thrice with PBST before immunoreactive bands were detected by UVP ChemStudio touch ([…] JENA®). The primary antibodies used in this study included the following: anti-Aβ (6E10, BIOLEGEND® 803001), anti-actin ([…]®), and anti-GAPDH (GTX100118). Signal intensity was analyzed using VisionWorks 9.1 and statistically analyzed using GraphPad Prism 9.
# Aβ42 [1] = molecular target: T1, Aβ42 (Homo sapiens, UniProt P05067); experiment: Fluorescent T jump protein dynamics of Aβ42 and LPS-Aβ42; details: two-state model analysis upon T jump
# From the text: A fluorescent T jump system was constructed on the basis of a previous report (Yang, C. T., Chu, L. K. Phys. Chem. Chem. Phys. 2022, 24, 11079-11085), with slight modification. The aqueous solutions were sandwiched by two quartz windows (diameter=25 mm, thickness=2 mm, #14-962, EDMUND OPTICS®) separated by a drilled Teflon spacer of a thickness of 0.8 mm. The diameter of the hole in the center was 2.0 mm. The circular infrared beam, which was used to heat up water to increase the temperature, from a continuous-wave diode laser at 1550 nm was focused with two convex lenses (f=100.0 mm; f=75.6 mm) to a diameter of 1.6 mm before entering the sample cell. […] The fluorescence was collected using a MicroSpot Focusing Objective (LMU-20X-NUV, THORLABS®, 325-500 nm) and later focused through a 200 μm pinhole by a lens (f=50.0 mm) to an optical fiber (300-1,200 nm). Thereafter, the collected fluorescence light was introduced to a photomultiplier tube and filtered using an optical filter to define the detection range at 300-445 nm. The voltage signal from the photomultiplier was amplified by a factor of 20 using a voltage pre-amplifier, and further recorded using an oscilloscope.
# The photobleaching-induced fluorescence decrease should be considered in the evolution of the fluorescence intensity change of Aβ42 and LPS-A342 upon T jump. […]
# Aβ42 [2] = molecular target: T1, Aβ42; experiment: Circular dichroism of Aβ42 and LPS-Aβ42; details: Aβ42 96 μM, LPS 160 nM, 25° C.
# Protocol: Circular dichroism (CD): Approximately 300 μL of (96 μM) and mixtures of Aβ42 (96 μM) and LPS (160 nM) were loaded into a quartz cuvette of an optical length of 1 mm (110-1-40, HELLMA ANALYTICS®) and measured using a spectrometer equipped with a thermostat (Model 410, AVIV BIOMEDICAL®, Inc.) in 190-260 nm at 25° C. with a spectral resolution of 1 nm.
# LPS-Aβ42 complex, sequence (P05067 672-713 limits assumed, one chain of several): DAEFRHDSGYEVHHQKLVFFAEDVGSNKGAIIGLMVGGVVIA
# T1 sequence (P05067 672-713 limits assumed): as the sequence (P05067 672-713 limits assumed, one chain of several) above
compound,measurement,setting,value
O=c1c(O)c(-c2ccc(O)cc2O)oc2cc(O)cc(O)c12 [morin],ln(γ),LPS-Aβ42 complex; [morin] 20 nM,2.75
same,Δt = tw/morin − tw/o morin,LPS-Aβ42 complex; [morin] 20 nM,63 s
same,γ (lifetime increment percentage),LPS-Aβ42 complex; [morin] 20 nM,15.7%
same,time (apparent lifetime of the non-equilibrium interaction),LPS-Aβ42 complex; [morin] 20 nM,465 s
same,ln(γ),LPS-Aβ42 complex; [morin] 50 nM,3.47
same,Δt = tw/morin − tw/o morin,LPS-Aβ42 complex; [morin] 50 nM,129 s
same,γ (lifetime increment percentage),LPS-Aβ42 complex; [morin] 50 nM,32.1%
same,time (apparent lifetime of the non-equilibrium interaction),LPS-Aβ42 complex; [morin] 50 nM,531 s
same,ln(γ),LPS-Aβ42 complex; [morin] 100 nM,4.22
same,Δt = tw/morin − tw/o morin,LPS-Aβ42 complex; [morin] 100 nM,275 s
same,γ (lifetime increment percentage),LPS-Aβ42 complex; [morin] 100 nM,68.4%
same,time (apparent lifetime of the non-equilibrium interaction),LPS-Aβ42 complex; [morin] 100 nM,677 s
same,ln(γ),LPS-Aβ42 complex; [morin] 200 nM,4.42
same,Δt = tw/morin − tw/o morin,LPS-Aβ42 complex; [morin] 200 nM,335 s
same,γ (lifetime increment percentage),LPS-Aβ42 complex; [morin] 200 nM,83.3%
same,time (apparent lifetime of the non-equilibrium interaction),LPS-Aβ42 complex; [morin] 200 nM,737 s
same,effect on the oscillatory event (lifetime) of the LPS-Aβ42 complex,LPS-Aβ42 complex,extended; also recorded: significant prolongation; also recorded: significant time extension; also recorded: prolonged in a dose-dependent manner
same,"n, power to which bait concentration is taken (slope of ln(γ) versus ln([morin]))",LPS-Aβ42 complex; linear regression of Table S1 data,0.76±0.10
same,rescue effect of Aβ42-induced cell apoptosis,SH—SY5Y neuronal cells; Aβ42 100 μM,in a dose-dependent manner; also recorded: could be observed
same,rescue of Aβ42-induced cell death by small baits alone,SH—SY5Y neuronal cells; Aβ42 100 μM,could not alleviate Aβ42-induced cell death
same,residual Aβ42 levels from the total lysate,SH—SY5Y cells,significantly decreased; also recorded: dose-dependent depletion of Aβ42
COc1cc(/C=C/C(=O)CC(=O)/C=C/c2ccc(O)c(OC)c2)ccc1O [curcumin],effect on the oscillatory event (lifetime) of the LPS-Aβ42 complex,LPS-Aβ42 complex,did not perturb the oscillatory event
CCN(CC)CCCC(C)Nc1c2ccc(Cl)cc2nc2ccc(OC)cc12 (centres unmarked) [quinacrine dihydrochloride],effect on the oscillatory event (lifetime) of the LPS-Aβ42 complex,LPS-Aβ42 complex,did not perturb the oscillatory event
O=c1c(O)c(-c2cc(O)c(O)c(O)c2)oc2cc(O)cc(O)c12 [myricetin],effect on the oscillatory event (lifetime) of the LPS-Aβ42 complex,LPS-Aβ42 complex,did not perturb the oscillatory event
"O=C(O[C@@H]1Cc2c(O)cc(O)cc2O[C@@H]1c1cc(O)c(O)c(O)c1)c1cc(O)c(O)c(O)c1 [EG, epigallocatechin gallate]",effect on the oscillatory event (lifetime) of the LPS-Aβ42 complex,LPS-Aβ42 complex,did not perturb the oscillatory event
same,rescue of Aβ42-induced cell death by small baits alone,SH—SY5Y neuronal cells; Aβ42 100 μM,could not alleviate Aβ42-induced cell death
same,residual Aβ42 levels from the total lysate,SH—SY5Y cells,not observed; also recorded: no impact on the degradation of Aβ42
O=C(OC[C@H]1O[C@@H](OC(=O)c2cc(O)c(O)c(OC(=O)c3cc(O)c(O)c(O)c3)c2)[C@H](OC(=O)c2cc(O)c(O)c(OC(=O)c3cc(O)c(O)c(O)c3)c2)[C@@H](OC(=O)c2cc(O)c(O)c(OC(=O)c3cc(O)c(O)c(O)c3)c2)[C@@H]1OC(=O)c1cc(O)c(O)c(OC(=O)c2cc(O)c(O)c(O)c2)c1)c1cc(O)c(O)c(OC(=O)c2cc(O)c(O)c(O)c2)c1 [tannic acid],effect on the oscillatory event (lifetime) of the LPS-Aβ42 complex,LPS-Aβ42 complex,did not perturb the oscillatory event
O=C(/C=C/c1ccc(O)c(O)c1)O[C@H](Cc1ccc(O)c(O)c1)C(=O)O [rosmarinic acid],effect on the oscillatory event (lifetime) of the LPS-Aβ42 complex,LPS-Aβ42 complex,did not perturb the oscillatory event
chondroitin sulfate sodium [CS],effect on the oscillatory event (lifetime) of the LPS-Aβ42 complex,LPS-Aβ42 complex,shortened the binding event; also recorded: shortening
same,rescue effect of Aβ42-induced cell apoptosis,SH—SY5Y neuronal cells; Aβ42 100 μM,not observed
same,rescue of Aβ42-induced cell death by small baits alone,SH—SY5Y neuronal cells; Aβ42 100 μM,could not alleviate Aβ42-induced cell death
same,residual Aβ42 levels from the total lysate,SH—SY5Y cells,not observed; also recorded: no impact on the degradation of Aβ42
Lipopolysaccharide [LPS],effect on thermally induced protein dynamics of Aβ42,Aβ42 [1],retarded the upward response
same,lifetime of mass oscillation,"LPS-Aβ42 complex; LPS anchored on sensor, Aβ42, FSM, no bait",less than 30 min
same,cell viability,SH—SY5Y neuronal cells; LPS of Aβ42 solution removed,less than 10%
same,viability of neuronal cells in medium containing Aβ42,"SH—SY5Y neuronal cells; high dose (1000 nM) of LPS, Aβ42 100 μM",100%
same,effect on secondary structure of Aβ42 (CD spectra),Aβ42 [2],does not initiate the unfolding of the secondary structure of Aβ42
